In data set [1] the test system is GMC101 (Aβ worms). Put plainly: ROS production (ROS-Glo H2O2 assay) in worms. It counts as in vivo, C. elegans. The conditions noted are these: 5 μM; administered at L4; D5 of adulthood. The protocol: ROS-Glo™ H2O2 cell kit assay was used (Promega, Fitchburg, Wis., USA) and adapted for C. elegans studies. The ROS-Glo™ H2O2 Assay is a bioluminescent assay that measures the level of H2O2, a reactive oxygen species (ROS), directly in cell culture or tissue or in defined enzyme reactions. A derivatized luciferin substrate is incubated with sample and reacts directly with H2O2 to generate a luciferin precursor. Worms treated with 5 μM Netoglitazone in 1% DMSO or 1% DMSO only were washed using M9 buffer out the NGM plates. The buffer was then changed 3 times to remove the excess bacteria. Worm pellets were then divided in three wells and 80 μl of worm pellet (around 200 worms/well) was incubated for 6 h at RT with 20 μl of a ROS Substrate Solution (Promega, Fitchburg, Wis., USA); mild shaking at 300 rpm was used to avoid worm sedimentation; afterwards, worms were incubated for ca. 20 min with 100 μl of the detection solution; luminescence was then measured with a Clariostar (BMG Labtech, Aylesbury, UK).

Data set [2] concerns GMC101 (Aβ worms). The conditions noted are these: GMC101, C. elegans, in vivo. As to the method: (§1) Briefly, Netoglitazone stocks (5 mM in 100% DMSO) were used at an appropriate concentration to seed 9-cm NGM plates. Plates were then placed in a laminar flow hood at room temperature (22° C.) for up to 4 hours to dry. C. elegans cultures were then transferred onto media seeded with compound as L4 stage or Day 3 for late treatments and incubated at 24° for the whole experiment. Experiments were carried out at different Netoglitazone concentrations ranging from 0.05 to 500 μM in 1% DMSO. As controls, plates seeded only with 1% DMSO were used.

In a further data set the test system is control worms. The conditions noted are these: C. elegans, in vivo. As to the method:
as §1

Data set [3] concerns GMC101 (Aβ worms). The data set can be described thus: Automated motility assay, Aβ worms. It counts as in vivo, C. elegans. The protocol: GMC101 dvIs100[unc-54p::A-beta-1-42::unc-54 3′UTR+mt1-2p::GFP]. mt1-2p::GFP produces constitutive expression of GFP in intestinal cells. unc-54p::A-beta-1-42 expresses full-length human Aβ42 peptide in body wall muscle cells that aggregates in vivo. Shifting L4 or young adult animals from 20° to 24° C. causes paralysis (G. McColl et al., Utility of an improved model of amyloid-beta (Aβ1-42) toxicity in Caenorhabditis elegans for drug screening for Alzheimer's disease. Mol Neurodegener. 7, 57 (2012));
as §1
(§2) All C. elegans populations were cultured at 20° C. and developmentally synchronized from a 4 h egg-lay. At 64-72 h post-egg-lay (time zero), individuals were transferred to FUDR plates, and body movements were assessed over the times indicated. At different ages, the animals were washed off the plates with M9 buffer and spread over an OP-50 unseeded 9 cm plate, after which their movements were recorded at 20 fps using a recently developed microscopic procedure (M. Perni et al., Massively parallel C. elegans tracking provides multi-dimensional fingerprints for phenotypic discovery. J. Neurosci. Methods. 306, 57-67 (2018)) for 1 min. Up to 600 animals were counted in each experiment in duplicate unless stated otherwise. […]
In order to screen for the effect of therapeutics in the most robust way, a wide field-of-view nematode-tracking platform (WF-NTP) was used, which enables the simultaneous investigation of multiple phenotypic readouts on large worm populations. […]

The target in a further data set is T1, Aβ42 (Homo sapiens, UniProt P05067).
T1 construct: […]; made in house; host or cells: E. coli BL21 Gold (DE3)
The data set can be described thus: Chemical kinetics analysis of Aβ42 aggregation profiles (rate constants). It counts as biochemical. The conditions noted are these: 2 μM Aβ42; increasing compound concentrations. The source says: The time evolution of the total fibril mass concentration is described as a function only of the initial conditions and the rate constants of the system by the integrated rate law given by Eq. (54) in Cohen et al., J Chem Phys 135, 065106, 2011.
These are related to the rate of formation of new aggregates through primary pathways λ=√{square root over (2k+knm(0)^n^c)} and through secondary pathways κ=√{square root over (2k+k2m(0)^n^2^+1)}, where the initial concentration of soluble monomers is denoted by m(0), nc and n2 describe the dependencies of the primary and secondary pathways on the monomer concentration (nc=n2=2 for Aβ42), and kn, k+ and k2 are the rate constants of the primary nucleation, elongation and secondary nucleation, respectively (Cohen et al., Proc Natl Acad Sci USA, 110(24), 9758-63, 2013). […]
A quantitative analysis was carried out on the effects of the molecules by matching the experimental aggregation profiles to kinetic curves calculated using the rate laws derived from a master equation that relates the time evolution of fibril formation to the rate constants of the different microscopic events. In this approach, the aggregation profiles in the presence of an inhibitor are described by introducing into the rate laws suitable perturbations to each of the microscopic rate constants evaluated in the absence of the inhibitor. […]

Data set [4] addresses A1340 (40-residue isoform of Aβ) (Homo sapiens, UniProt P05067). The data set can be described thus: A1340 aggregation kinetics. The following applies: 10 μM A1340; 1.25-fold excess.
Data set [5] has as its system CL2355 (Aβ1-42Neur worms). The data set can be described thus: Automated motility assay, Aβ1-42Neur worms. Type of data set: in vivo, C. elegans. The conditions noted are these: compared to untreated worms. The protocol: as §1, §2

T1 sequence (P05067 671-713): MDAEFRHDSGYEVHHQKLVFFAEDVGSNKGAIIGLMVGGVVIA
Sequence of A1340 (40-residue isoform of Aβ) (P05067 672-711 limits assumed): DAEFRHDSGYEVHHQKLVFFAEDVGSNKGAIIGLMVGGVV

For the molecule `O=C1NC(=O)C(Cc2ccc3cc(OCc4ccccc4F)ccc3c2)S1` (stereo not drawn) [Netoglitazone], in the data set with GMC101 (Aβ worms) [1], the “levels of ROS production” value was “significantly decreased the levels of oxidative species”. In addition, the maximum tolerable dose entry in the data set with GMC101 (Aβ worms) [2] was “less than 50 μM”; in the data set on control worms it was less than 500 µM. Moreover, the “mobility of Aβ worms after treatment at L4” value with GMC101 (Aβ worms) [3] (0-10 μM, administered at L4) is given as “greatly improves the mobility”. For the same molecule, the “mobility after late administration” value with GMC101 (Aβ worms) [3] (administered at D3, D5 of adulthood) is given as “increase”. Moreover, the “concentration range of best protective effect on mobility” value with GMC101 (Aβ worms) [3] (administered at L4, observed at D3 of adulthood) lay in the range of 0.5 to 5 µM. On Aβ42, the “effect on rate constants of primary (knk+) and secondary (k2k+) pathways” value was “can affect both nucleation pathways”. Besides, the “inhibition of A1340 aggregation” value in data set [4] is “able to inhibit A1340 aggregation”. Moreover, the “motility of Aβ1-42Neur worms” value in data set [5] is “significantly improves the motility”.

Values taken from patent publication US20210145802A1, “THERAPY FOR OPHTHALMOLOGICAL CONDITIONS” (WREN THERAPEUTICS LIMITED, priority 2018, published 2021).
